Source: patent US7989422B2, “Antibacterial agents” (Alchemia Limited, priority 2005, dated 2011)

Assays:
Type in all cases: cell-based
[1] = tested on: Staphylococcus aureus (MRSA) ATCC 33591; assay: MIC against MRSA, microbroth dilution; conditions: MIC class
Description: (§1) Testing was conducted to determine the in vitro antimicrobial activity of a series of compounds synthesised by Alchemia Pty Ltd. The antimicrobial activity of each compound was determined at a single concentration (128 μg/mL) in Mueller Hinton (MH) broth against the ATCC type strain of Staphylococcus aureus. […] Compounds showing activity at concentrations up to 32-64 μg/mL in the presence/absence of serum were then tested for MIC activity against a standard set of 5 microorganisms comprising of ATCC type strains of MRSA, Enterococcus faecalis, Enterococcus faecium, VRE and Escherichia coli. CLSI (formerly NCCLS) microbroth dilution technique was used.
(§2) Each compound is initially dissolved in 100 μL of DMSO. Each solution is then diluted further in 0.9 mL of sterile MH broth to give a total volume of 1 mL (1000 μg/mL) This stock solution is then further diluted in MH broth to give a test solution with final concentration of 128 μg/mL using the following formula: 0.5 ml stock in 3.4 ml MH broth
(§3) Each test organism was subcultured from the −70° C. deep freezer onto horse blood agar. The plates were streaked to obtain isolated colonies and incubated at 35° C. in non-CO2 incubator for 24 hours. A second subculture was carried out onto horse blood agar. For each test organism, 1-2 colonies were selected from an 18-24 hour culture and inoculated into 2 ml sterile MH broth. The turbidity was adjusted to 0.5 McFarland standard.
(§4) A 1:10 dilution in MH broth (200 μL in 2 ml MH) of the 0.5 McFarland control was prepared. 5 μL of this diluted solution was used to inoculate the trays.
(§5) The trays were prepared in a similar way as mentioned above and incubated at 35° C. in a non-CO2 incubator for 18-24 hours. The plates were examined for growth after the incubation time.
(§6) After 18-24 hour incubation 5 μL from each well was then inoculated onto horse blood agar and incubated for 18-24 hours at 35° C. in a non-CO2 incubator.
(§7) If the test organism is sensitive to the compound in the broth the growth will be inhibited. Similarly, if the organism grows on the antibiotic containing medium then it is resistant to this particular antibiotic.

[2] = tested on: Staphylococcus aureus ATCC 25923; assay: MIC against S. aureus, microbroth dilution in MH broth, without or with 5% horse serum; conditions: MIC class; S. aureus ATCC 25923
Description: as §1, §2, §3, §4
100 μL of sterile MH broth was added in columns 2-12. 200 μL of test solution was added in column 1. 100 μL was transferred in column 2 giving a ½ dilution. 100 μL from column 2 was then transferred to column 3 (¼ dilution). This dilution was carried on until column 12. A second tray containing the same test solution was inoculated in a similar manner using sterile MH broth with 5% heat inactivated horse serum. 5 μL of organism solution was then added to each well. The plates were then sealed and incubated at 35° C. in a non-CO2 incubator for 18-24 hours. The plates were examined for growth after the incubation time.
as §7

[3] = tested on: E. Faecium 51299 VanB; assay: MIC against vancomycin-resistant enterococcus 51299 (VanB), microbroth dilution; conditions: MIC class; ATCC 51299 VanB
Description: as §1, §2, §3, §4, §5, §6, §7

[4] = tested on: Enterococcus faecalis ATCC 29212; assay: MIC against E. faecalis, microbroth dilution; conditions: MIC class
Description: as §1, §2, §3, §4, §5, §6, §7

[5] = tested on: Enterococcus faecium ATCC 35667; assay: MIC against E. faecium, microbroth dilution; conditions: MIC class
Description: as §1, §2, §3, §4, §5, §6, §7

## Nc1ccccc1OC1C(NS(=O)(=O)c2ccc(C(F)(F)F)cc2)COC(CO)C1NC(=O)C(N)Cc1ccc(-c2ccccc2)cc1 (stereo not drawn) [Compound 79]
[1]
  S. Aureus 33591 MRSA activity: + (“+”: MIC (μg/mL): 64 ≧ MIC > 16)
[2]
  S. Aureus 25923 activity: + (“+”: MIC (μg/mL): 64 ≧ MIC > 16)
[3]
  E. Faecium 51299 VanB activity: − (“−”: MIC (μg/mL): MIC > 64)
[4]
  E. Fecalis 29212 activity: − (“−”: MIC (μg/mL): MIC > 64)
[5]
  E. Faecium 35667 activity: − (“−”: MIC (μg/mL): MIC > 64)

## O=C(NC1C(CO)OCC(n2c(O)nc3cc(C(F)(F)F)cc(Cl)c32)C1O)c1ccc(-c2ccccc2)cc1 (stereo not drawn) [Compound 153]
[1]
  S. Aureus 33591 MRSA activity: + (“+”: MIC (μg/mL): 64 ≧ MIC > 16)
[2]
  S. Aureus 25923 activity: + (“+”: MIC (μg/mL): 64 ≧ MIC > 16)
[3]
  E. Faecium 51299 VanB activity: − (“−”: MIC (μg/mL): MIC > 64)
[4]
  E. Fecalis 29212 activity: + (“+”: MIC (μg/mL): 64 ≧ MIC > 16)
[5]
  E. Faecium 35667 activity: − (“−”: MIC (μg/mL): MIC > 64)

## Nc1nc2cc(C(F)(F)F)cc(Cl)c2n1C1COC(CO)C(NC(=O)c2ccc(-c3ccccc3)cc2)C1O (stereo not drawn) [Compound 155]
[1]
  S. Aureus 33591 MRSA activity: + (“+”: MIC (μg/mL): 64 ≧ MIC > 16)
[2]
  S. Aureus 25923 activity: + (“+”: MIC (μg/mL): 64 ≧ MIC > 16)
[3]
  E. Faecium 51299 VanB activity: − (“−”: MIC (μg/mL): MIC > 64)
[4]
  E. Fecalis 29212 activity: − (“−”: MIC (μg/mL): MIC > 64)
[5]
  E. Faecium 35667 activity: − (“−”: MIC (μg/mL): MIC > 64)

## O=C(NC1C(CO)OCC(n2cnc3cc(C(F)(F)F)cc(Cl)c32)C1O)c1ccc(-c2ccccc2)cc1 (stereo not drawn) [Compound 156]
[1]
  S. Aureus 33591 MRSA activity: − (“−”: MIC (μg/mL): MIC > 64)
[2]
  S. Aureus 25923 activity: + (“+”: MIC (μg/mL): 64 ≧ MIC > 16)
[3]
  E. Faecium 51299 VanB activity: − (“−”: MIC (μg/mL): MIC > 64)
[4]
  E. Fecalis 29212 activity: − (“−”: MIC (μg/mL): MIC > 64)
[5]
  E. Faecium 35667 activity: + (“+”: MIC (μg/mL): 64 ≧ MIC > 16)

## NC(Cc1ccc(-c2ccccc2)cc1)C(=O)NC1C(CO)OCC(n2c(O)nc3cc(C(F)(F)F)cc(Cl)c32)C1O (stereo not drawn) [Compound 161]
[1]
  S. Aureus 33591 MRSA activity: + (“+”: MIC (μg/mL): 64 ≧ MIC > 16)
[2]
  S. Aureus 25923 activity: + (“+”: MIC (μg/mL): 64 ≧ MIC > 16)
[3]
  E. Faecium 51299 VanB activity: − (“−”: MIC (μg/mL): MIC > 64)
[4]
  E. Fecalis 29212 activity: + (“+”: MIC (μg/mL): 64 ≧ MIC > 16)
[5]
  E. Faecium 35667 activity: − (“−”: MIC (μg/mL): MIC > 64)

## Nc1nc2cc(C(F)(F)F)cc(Cl)c2n1C1COC(CO)C(NC(=O)C(N)Cc2ccc(-c3ccccc3)cc2)C1O (stereo not drawn) [Compound 163]
[1]
  S. Aureus 33591 MRSA activity: + (“+”: MIC (μg/mL): 64 ≧ MIC > 16)
[2]
  S. Aureus 25923 activity: + (“+”: MIC (μg/mL): 64 ≧ MIC > 16)
[3]
  E. Faecium 51299 VanB activity: − (“−”: MIC (μg/mL): MIC > 64)
[4]
  E. Fecalis 29212 activity: + (“+”: MIC (μg/mL): 64 ≧ MIC > 16)
[5]
  E. Faecium 35667 activity: − (“−”: MIC (μg/mL): MIC > 64)

## CCCCCC(C)CCC(=O)NC1C(CO)OCC(n2c(O)nc3cc(C(F)(F)F)cc(Cl)c32)C1O (stereo not drawn) [Compound 177]
[1]
  S. Aureus 33591 MRSA activity: + (“+”: MIC (μg/mL): 64 ≧ MIC > 16)
[2]
  S. Aureus 25923 activity: + (“+”: MIC (μg/mL): 64 ≧ MIC > 16)
[3]
  E. Faecium 51299 VanB activity: − (“−”: MIC (μg/mL): MIC > 64)
[4]
  E. Fecalis 29212 activity: − (“−”: MIC (μg/mL): MIC > 64)
[5]
  E. Faecium 35667 activity: + (“+”: MIC (μg/mL): 64 ≧ MIC > 16)

## CCCCCC(C)CCC(=O)NC1C(CO)OCC(n2c(S)nc3cc(C(F)(F)F)cc(Cl)c32)C1O (stereo not drawn) [Compound 178]
[1]
  S. Aureus 33591 MRSA activity: − (“−”: MIC (μg/mL): MIC > 64)
[2]
  S. Aureus 25923 activity: + (“+”: MIC (μg/mL): 64 ≧ MIC > 16)
[3]
  E. Faecium 51299 VanB activity: − (“−”: MIC (μg/mL): MIC > 64)
[4]
  E. Fecalis 29212 activity: − (“−”: MIC (μg/mL): MIC > 64)
[5]
  E. Faecium 35667 activity: − (“−”: MIC (μg/mL): MIC > 64)

## CCCCCC(C)CCC(=O)NC1C(CO)OCC(n2c(N)nc3cc(C(F)(F)F)cc(Cl)c32)C1O (stereo not drawn) [Compound 179]
[1]
  S. Aureus 33591 MRSA activity: − (“−”: MIC (μg/mL): MIC > 64)
[2]
  S. Aureus 25923 activity: + (“+”: MIC (μg/mL): 64 ≧ MIC > 16)
[3]
  E. Faecium 51299 VanB activity: − (“−”: MIC (μg/mL): MIC > 64)
[4]
  E. Fecalis 29212 activity: − (“−”: MIC (μg/mL): MIC > 64)
[5]
  E. Faecium 35667 activity: − (“−”: MIC (μg/mL): MIC > 64)
